Source: patent US5292742A, “Angiotensin II receptor blocking 2,3,6 substituted quinazolinones” (American Cyanamid Company, priority 1993, dated 1994)
Where “and” joins values, the source holds several entries; their conditions need not be identical. Equal values may be shown once.

System: angiotensin II (AII) vasopressor response
Experiment: AII challenge: inhibition of angiotensin II vasopressor response in conscious spontaneously hypertensive rats
Format: in vivo, rat (Okamoto-Aoki SHR)
Settings: 3 mg/kg IV; for % Inhibition (angiotensin blockage) of AII vasopressor response / Average Change (increase in systolic blood pressure after AII): SHR n = 2; for Change (increase in systolic blood pressure after AII), individual rat / Response After AII (systolic blood pressure), individual rat / Control Before AII (systolic blood pressure), individual rat: individual SHR
Text: By administering a compound of this invention to a rat, and then challenging with angiotensin II, a blockage of the vasopressor response is realized.
Conscious Male Okamoto-Aoki SHR, 16-20 weeks old, weighing approximately 330 g are purchased from Charles River Labs (Wilmington, Mass.). Conscious rats are restrained in a supine position with elastic tape. The area at the base of the tail is locally anesthetized by subcutaneous infiltration with 2% procaine. The ventral caudal artery and vein are isolated, and a cannula made of polyethylene (PE) 10-20 tubing (fused together by heat) is passed into the lower abdominal aorta and vena cava, respectively. The cannula is secured, heparinized (1,000 I.U./ml), sealed and the wound is closed. The animals are placed in plastio restraininq cages in an upright position. The cannula is attached to a Statham P23Db pressure transducer, and pulsatile blood pressure is recorded to 10-15 minutes with a Gould Brush recorder. (Chan et al., (Drug Development Res., 18:75-94, 1989).
Angiotensin II (human sequence, Sigma Chem. Co., St. Louis, Mo.) of 0.05 and 0.1 mcg/kg i.v. is injected into all rats (predosing response). Then a test compound, vehicle or a known angiotensin II antagonist is administered i.v., i.p. or orally to each set of rats. The two doses of angiotensin II are given to each rat again at 30, 60, 90, 120, 180, 240 and 300 minutes post dosing the compound or vehicle. The vasopressor response of angiotensin II is measured for the increase in systolic blood pressure in mmHg. The percentage of antagonism or blockade of the vasopressor response of angiotensin II by a compound is calculated using the vasopressor response (increase in systolic blood pressure) of angiotensin II of each rat predosing the compound as 100%. A compound is considered active if at 30 mg/kg i.v. it antagonized at least 50% of the response.

[1] = AII 0.05 mcg/kg IV, 30 min post dose
[2] = AII 0.05 mcg/kg IV, 60 min post dose
[3] = AII 0.05 mcg/kg IV, 90 min post dose
[4] = AII 0.05 mcg/kg IV, 120 min post dose
[5] = AII 0.05 mcg/kg IV, 180 min post dose
[6] = AII 0.05 mcg/kg IV, 240 min post dose
[7] = AII 0.05 mcg/kg IV, 300 min post dose
[8] = AII 0.1 mcg/kg IV, 30 min post dose
[9] = AII 0.1 mcg/kg IV, 60 min post dose
[10] = AII 0.1 mcg/kg IV, 90 min post dose
[11] = AII 0.1 mcg/kg IV, 120 min post dose
[12] = AII 0.1 mcg/kg IV, 180 min post dose
[13] = AII 0.1 mcg/kg IV, 240 min post dose
[14] = AII 0.1 mcg/kg IV, 300 min post dose

## CCCCc1nc2ccc(C3=NN4CCCCC4C3)cc2c(=O)n1Cc1ccc(-c2ccccc2-c2nnn[nH]2)cc1 (stereo not shown) [Example 11]
[1]
  % Inhibition (angiotensin blockage) of AII vasopressor response: 82%
  Average Change (increase in systolic blood pressure after AII): 7.5 mmHg
  Change (increase in systolic blood pressure after AII), individual rat: 10 mmHg and 5 mmHg
[2]
  % Inhibition (angiotensin blockage) of AII vasopressor response: 59%
  Average Change (increase in systolic blood pressure after AII): 17.5 mmHg
  Change (increase in systolic blood pressure after AII), individual rat: 20 mmHg and 15 mmHg
[3]
  % Inhibition (angiotensin blockage) of AII vasopressor response: 65%
  Average Change (increase in systolic blood pressure after AII): 15 mmHg
  Change (increase in systolic blood pressure after AII), individual rat: 15 mmHg
[4]
  % Inhibition (angiotensin blockage) of AII vasopressor response: 59%
  Average Change (increase in systolic blood pressure after AII): 17.5 mmHg
  Change (increase in systolic blood pressure after AII), individual rat: 20 mmHg and 15 mmHg
[5]
  % Inhibition (angiotensin blockage) of AII vasopressor response: 59%
  Average Change (increase in systolic blood pressure after AII): 17.5 mmHg
  Change (increase in systolic blood pressure after AII), individual rat: 20 mmHg and 15 mmHg
[6]
  % Inhibition (angiotensin blockage) of AII vasopressor response: 53%
  Average Change (increase in systolic blood pressure after AII): 20 mmHg
  Change (increase in systolic blood pressure after AII), individual rat: 25 mmHg and 15 mmHg
[7]
  % Inhibition (angiotensin blockage) of AII vasopressor response: 41%
  Average Change (increase in systolic blood pressure after AII): 25 mmHg
  Change (increase in systolic blood pressure after AII), individual rat: 25 mmHg
[8]
  % Inhibition (angiotensin blockage) of AII vasopressor response: 63%
  Average Change (increase in systolic blood pressure after AII): 17.5 mmHg
  Change (increase in systolic blood pressure after AII), individual rat: 20 mmHg and 15 mmHg
[9]
  % Inhibition (angiotensin blockage) of AII vasopressor response: 42%
  Average Change (increase in systolic blood pressure after AII): 27.5 mmHg
  Change (increase in systolic blood pressure after AII), individual rat: 30 mmHg and 25 mmHg
[10]
  % Inhibition (angiotensin blockage) of AII vasopressor response: 37%
  Average Change (increase in systolic blood pressure after AII): 30 mmHg
  Change (increase in systolic blood pressure after AII), individual rat: 30 mmHg
[11]
  % Inhibition (angiotensin blockage) of AII vasopressor response: 42%
  Average Change (increase in systolic blood pressure after AII): 27.5 mmHg
  Change (increase in systolic blood pressure after AII), individual rat: 30 mmHg and 25 mmHg
[12]
  % Inhibition (angiotensin blockage) of AII vasopressor response: 37%
  Average Change (increase in systolic blood pressure after AII): 30 mmHg
  Change (increase in systolic blood pressure after AII), individual rat: 25 mmHg and 35 mmHg
[13]
  % Inhibition (angiotensin blockage) of AII vasopressor response: 47%
  Average Change (increase in systolic blood pressure after AII): 25 mmHg
  Change (increase in systolic blood pressure after AII), individual rat: 20 mmHg and 30 mmHg
[14]
  % Inhibition (angiotensin blockage) of AII vasopressor response: 42%
  Average Change (increase in systolic blood pressure after AII): 27.5 mmHg
  Change (increase in systolic blood pressure after AII), individual rat: 20 mmHg and 35 mmHg
After AII 0.05 mcg/kg IV, 30 min post dose
  Response After AII (systolic blood pressure), individual rat: 240 mmHg and 225 mmHg
After AII 0.05 mcg/kg IV, 60 min post dose
  Response After AII (systolic blood pressure), individual rat: 230 mmHg
After AII 0.05 mcg/kg IV, 90 min post dose
  Response After AII (systolic blood pressure), individual rat: 215 mmHg and 225 mmHg
After AII 0.05 mcg/kg IV, 120 min post dose
  Response After AII (systolic blood pressure), individual rat: 225 mmHg
After AII 0.05 mcg/kg IV, 180 min post dose
  Response After AII (systolic blood pressure), individual rat: 230 mmHg and 225 mmHg
After AII 0.05 mcg/kg IV, 240 min post dose
  Response After AII (systolic blood pressure), individual rat: 235 mmHg and 220 mmHg
After AII 0.05 mcg/kg IV, 300 min post dose
  Response After AII (systolic blood pressure), individual rat: 240 mmHg and 230 mmHg
After AII 0.1 mcg/kg IV, 30 min post dose
  Response After AII (systolic blood pressure), individual rat: 245 mmHg and 240 mmHg
After AII 0.1 mcg/kg IV, 60 min post dose
  Response After AII (systolic blood pressure), individual rat: 230 mmHg and 250 mmHg
After AII 0.1 mcg/kg IV, 90 min post dose
  Response After AII (systolic blood pressure), individual rat: 235 mmHg and 240 mmHg
After AII 0.1 mcg/kg IV, 120 min post dose
  Response After AII (systolic blood pressure), individual rat: 230 mmHg and 235 mmHg
After AII 0.1 mcg/kg IV, 180 min post dose
  Response After AII (systolic blood pressure), individual rat: 240 mmHg and 250 mmHg
After AII 0.1 mcg/kg IV, 240 min post dose
  Response After AII (systolic blood pressure), individual rat: 245 mmHg and 240 mmHg
After AII 0.1 mcg/kg IV, 300 min post dose
  Response After AII (systolic blood pressure), individual rat: 245 mmHg
Before AII 0.05 mcg/kg IV, 30 min post dose
  Control Before AII (systolic blood pressure), individual rat: 230 mmHg and 220 mmHg
Before AII 0.05 mcg/kg IV, 60 min post dose
  Control Before AII (systolic blood pressure), individual rat: 210 mmHg and 215 mmHg
Before AII 0.05 mcg/kg IV, 90 min post dose
  Control Before AII (systolic blood pressure), individual rat: 200 mmHg and 210 mmHg
Before AII 0.05 mcg/kg IV, 120 min post dose
  Control Before AII (systolic blood pressure), individual rat: 205 mmHg and 210 mmHg
Before AII 0.05 mcg/kg IV, 180 min post dose
  Control Before AII (systolic blood pressure), individual rat: 210 mmHg
Before AII 0.05 mcg/kg IV, 240 min post dose
  Control Before AII (systolic blood pressure), individual rat: 210 mmHg and 205 mmHg
Before AII 0.05 mcg/kg IV, 300 min post dose
  Control Before AII (systolic blood pressure), individual rat: 215 mmHg and 205 mmHg
Before AII 0.1 mcg/kg IV, 30 min post dose
  Control Before AII (systolic blood pressure), individual rat: 225 mmHg
Before AII 0.1 mcg/kg IV, 60 min post dose
  Control Before AII (systolic blood pressure), individual rat: 200 mmHg and 225 mmHg
Before AII 0.1 mcg/kg IV, 90 min post dose
  Control Before AII (systolic blood pressure), individual rat: 205 mmHg and 210 mmHg
Before AII 0.1 mcg/kg IV, 120 min post dose
  Control Before AII (systolic blood pressure), individual rat: 200 mmHg and 210 mmHg
Before AII 0.1 mcg/kg IV, 180 min post dose
  Control Before AII (systolic blood pressure), individual rat: 215 mmHg
Before AII 0.1 mcg/kg IV, 240 min post dose
  Control Before AII (systolic blood pressure), individual rat: 225 mmHg and 210 mmHg
Before AII 0.1 mcg/kg IV, 300 min post dose
  Control Before AII (systolic blood pressure), individual rat: 225 mmHg and 210 mmHg
